Usually pKi stands for the negative decadic logarithm of the Ki, by convention in mol/L. The Emax is the size of the effect at its maximum, as opposed to the concentration needed. The term pIC50 denotes the IC50 on a negative log10 scale, so that one unit is a factor of ten. The term pEC50 denotes the negative decadic logarithm of the EC50, by convention in mol/L.

The text below walks through data of paper PMC11284800 (Journal of Medicinal Chemistry, 2024).

pEC50, pIC50, pKi: −log10 of the molar value. Like-named read-outs stand apart in the source and are kept apart here.

Data set [1] deals with T1, hCB1R (Homo sapiens, UniProt P21554). The experiment in a line: [3H]CP55,940 displacement assay on CHO membranes, CB1R. The format is binding. More on the design: host or cells: CHO-K1 (CHOK1hCB1_bgal). Conditions: for pKi: [3H]CP55,940 displacement; for hCB1R % displacement at 10 µM: [3H]CP55,940 displacement at 10 µM compound, ± SEM.
T1 sequence (P21554 whole entry): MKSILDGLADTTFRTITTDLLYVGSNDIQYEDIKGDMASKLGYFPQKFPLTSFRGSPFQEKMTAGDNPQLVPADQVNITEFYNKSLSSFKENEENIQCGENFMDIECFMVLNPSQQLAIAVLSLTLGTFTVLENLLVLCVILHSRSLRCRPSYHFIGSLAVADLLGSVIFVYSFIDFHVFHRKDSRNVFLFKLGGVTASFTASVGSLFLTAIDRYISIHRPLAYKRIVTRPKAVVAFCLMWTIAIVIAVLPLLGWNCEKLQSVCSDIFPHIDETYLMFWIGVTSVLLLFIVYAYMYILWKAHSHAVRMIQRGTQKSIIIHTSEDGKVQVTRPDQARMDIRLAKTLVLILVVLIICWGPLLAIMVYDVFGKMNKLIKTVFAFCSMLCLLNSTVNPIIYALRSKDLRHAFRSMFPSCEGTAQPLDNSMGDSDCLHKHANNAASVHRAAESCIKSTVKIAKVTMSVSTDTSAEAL
The target of data set [2] is T1, hCB1R. Kind of data set: HTRF cAMP assay, agonist / inverse agonist mode. The data set is classed as cell-based. Set-up: expressed in transfected cells; host or cells: CHO. The following applies: for Functional activity at CB1R (in words): CB1R cAMP HTRF assay. For orientation: TR-FRET usually uses a lanthanide donor and a delayed reading to cut background.
The target of the next data set is T2, human CB2R (Homo sapiens, UniProt P34972).
T2 construct: host or cells: CHO-K1 (CHOK1hCB2_bgal)
T2 sequence (P34972 whole entry): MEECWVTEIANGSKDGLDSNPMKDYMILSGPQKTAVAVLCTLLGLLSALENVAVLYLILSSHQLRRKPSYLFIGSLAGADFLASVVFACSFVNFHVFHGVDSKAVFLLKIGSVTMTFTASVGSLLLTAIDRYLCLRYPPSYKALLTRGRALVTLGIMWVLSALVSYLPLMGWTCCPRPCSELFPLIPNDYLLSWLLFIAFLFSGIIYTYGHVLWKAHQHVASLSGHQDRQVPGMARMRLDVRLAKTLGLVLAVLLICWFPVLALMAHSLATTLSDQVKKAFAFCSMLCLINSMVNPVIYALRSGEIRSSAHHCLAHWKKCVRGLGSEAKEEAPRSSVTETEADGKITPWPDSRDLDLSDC
Kind of data set: [3H]CP55,940 displacement assay on CHO membranes, CB2R. The data set is classed as binding. The following applies: for pKi: [3H]CP55,940 displacement; for hCB2R % displacement at 10 µM: [3H]CP55,940 displacement at 10 µM compound, ± SEM.

A short description of data set [3]: Photophysical characterization in PBS. The following applies: PBS pH 7.4. The format is physicochemical.
Setting [4] is: hCB2R Ki, CHO membranes stably expressing human CB2R, means of three experiments.
[5] abbreviates: hCB1R Ki, CHO membranes stably expressing human CB1R, means of three experiments.

With `CCOC(=O)C(CC)(CC)NC(=O)c1nn(-c2ccc(Cl)cc2Cl)c(-c2ccc(Cl)cc2)c1C` [Compound 15, Ethyl 2-(5-(4-Chlorophenyl)-1-(2,4-dichlorophenyl)-4-methyl-1H-pyrazole-3-carboxamido)-2-ethylbutanoate], the pKi at hCB1R [1] (hCB1R pKi ± SEM, CHO membranes) was 7.55; at human CB2R (setting [4]), 8.05; at human CB2R (hCB2R pKi ± SEM, CHO membranes), 8.07. The Emax at hCB1R [2] was -42%. The same compound had a pIC50 on hCB1R [2] of 7.88. Moreover, at hCB1R [2], the “Functional activity at CB1R (in words)” value is recorded as “inverse agonists”.

On to `CCOC(=O)C(CC)(CC)NC(=O)c1cnc(OCCOC)c(-c2ccc(Cl)cc2)n1` [Compound 18, Ethyl 2-(6-(4-Chlorophenyl)-5-(2-methoxyethoxy)pyrazine-2-carboxamido)-2-ethylbutanoate], for which the pKi at hCB1R [1] (setting [5]) is 6.09. On hCB1R [2], the Emax was -41%, the pIC50 is 6.72 and the “Functional activity at CB1R (in words)” value was “inverse agonists”. Also, the pKi at human CB2R (hCB2R pKi ± SEM, CHO membranes) was 7.95.

Consider `CCOC(=O)C(CC)(CC)NC(=O)c1nn(-c2ccc(Cl)cc2Cl)c2c1CCCc1cc(Cl)ccc1-2` [Compound 16, Ethyl 2-(8-Chloro-1-(2,4-dichlorophenyl)-1,4,5,6-tetrahydrobenzo[6,7]cyclohepta[1,2-c]pyrazole-3-carboxamido)-2-ethylbutanoate], for which the pKi on hCB1R [1] (hCB1R pKi ± SEM, CHO membranes) is 7.75; at human CB2R (hCB2R pKi ± SEM, CHO membranes) it was 8.40. The “Functional activity at CB1R (in words)” value at hCB1R [2] was “no activity”.

As for `CCC(CC)(NC(=O)c1cnc(OCCOC)c(-c2ccc(Cl)cc2)n1)C(=O)NCCOCCOCCNC(=O)c1ccc2c(c1)C(=O)OC21c2ccc(N(C)C)cc2Oc2cc(N(C)C)ccc21` [Compound 35], the “hCB1R % displacement at 10 µM” value on hCB1R [1] is -6 ± 5%. In addition, the pKi on hCB1R [1] (CHO membranes stably expressing human CB1R, means of three experiments, read-out: hCB1R Ki) was below 5.00. The “Binding to CB1R (in words)” value at hCB1R [1] (radioligand binding assay) is recorded as “did not bind”. In data set [3], the “Abs (absorbance maximum)” value came to 560 nm, the “Em (emission maximum)” value was 590 nm and the “QY (quantum yield)” value is 56.20%. Moreover, at human CB2R, the “hCB2R % displacement at 10 µM” value is 2 ± 0%. In addition, the pKi at human CB2R (CHO membranes stably expressing human CB2R, means of three experiments, read-out: hCB2R Ki) was below 5.00. For the same compound, at human CB2R (radioligand binding assay), the “Binding to CB2R (in words)” value was “did not bind”.

As for `CCC(CC)(NC(=O)c1nn(-c2ccc(Cl)cc2Cl)c(-c2ccc(Cl)cc2)c1C)C(=O)NCCOCCOCCNC(=O)c1ccc2c(c1)C(=O)OC21c2ccc(N(C)C)cc2Oc2cc(N(C)C)ccc21` [Compound 31], the “hCB1R % displacement at 10 µM” value on hCB1R [1] stood at 37 ± 5%. On hCB1R [1] (read-out: hCB1R Ki, CHO membranes stably expressing human CB1R, means of three experiments), the pKi was below 5.00. Besides, in data set [3], the “Abs (absorbance maximum)” value amounted to 520 nm, the “Em (emission maximum)” value is 585 nm and the “QY (quantum yield)” value came to 17.50%. Further, at human CB2R, the “hCB2R % displacement at 10 µM” value is given as 32 ± 6%. Moreover, the negative-log Ki (pKi) on human CB2R (read-out: hCB2R Ki, CHO membranes stably expressing human CB2R, means of three experiments) was below 5.00.

Turning to `CCOC(=O)C(CC)(CC)NC(=O)c1nn(Cc2cccc(F)c2)c2ccccc12` [Compound 19, Ethyl 2-Ethyl-2-(1-(3-fluorobenzyl)-1H-indazole-3-carboxamido)butanoate], the pKi on hCB1R [1] (hCB1R pKi ± SEM, CHO membranes) is 7.72. In addition, at hCB1R [2], the negative logarithm of the EC50 (pEC50) is 8.49, the Emax worked out at 93% and the “Functional activity at CB1R (in words)” value was “agonist”. For the same compound, on human CB2R (setting [4]), the pKi was 9.00. This compound had a pKi on human CB2R (hCB2R pKi ± SEM, CHO membranes) of 9.20.

Regarding `CCC(CC)(NC(=O)c1cnc(OCC2CC2)c(-c2ccc(F)cc2)c1)C(=O)NCCOCCOCCNc1ccc([N+](=O)[O-])c2nonc12` [Compound 40, 6-(Cyclopropylmethoxy)-5-(4-fluorophenyl)-N-(3-((2-(2-(2-((7-nitrobenzo[c][1,2,5]oxadiazol-4-yl)amino)ethoxy)ethoxy)ethyl)carbamoyl)pentan-3-yl)nicotinamide], the “hCB1R % displacement at 10 µM” value on hCB1R [1] worked out at 34 ± 1%. The negative logarithm of the Ki (pKi) at hCB1R [1] (setting [5]) is below 5.00. In data set [3], the “Abs (absorbance maximum)” value turned out to be 465 nm, the “Em (emission maximum)” value amounted to 550 nm and the “QY (quantum yield)” value is recorded as 1.30%. In addition, the pKi on human CB2R (setting [4]) was 6.32.
